Reference: patent US6518302B1, “Remedies” (Takara Shuzo Co., Ltd., priority 1999, dated 2003)
pIC50: −log10 of the molar value.

Key:
[1] = system: IL-10 production in RAW264.7 cells; assay: Inhibition of LPS-induced IL-10 production (ELISA); type: cell-based, Mouse; conditions: 0.5 ml, 5 μl of 10 mM compound (14), 1 μl of 25 mM compound (7) or 1 μl of 50 mM compound (17), 18 hours after LPS
Description: RAW264.7 cells (ATCC TIB 71) were suspended in Dulbecco's modified Eagle's medium (Bio Whittaker, 12-604F) containing 10% fetal calf serum (Gibco) at a concentration of 3×10^5 cells/ml. 0.5 ml of the suspension was added to each well of a 48-well microtiter plate and the plate was incubated at 37° C. overnight in the presence of 5% CO2. 5 μl of a solution containing the compound (14) at a concentration of 10 mM in water, 1 μl of a solution of the compound (7) at a concentration of 25 mM in dimethyl sulfoxide, or 1 μl of a solution of the compound (17) at a concentration of 50 mM in dimethyl sulfoxide was added to the well. After incubation for additional 5 hours, 5 μl of a solution of lipopolysaccharide (LPS, Sigma, L-2012) at a concentration of 100 μg/ml in water was added thereto. After incubation for 18 hours, a culture supernatant was collected. The content of interleukin 10 (IL-10) in the culture supernatant was measured using enzyme immuno sandwich assay (ELISA; Mouse IL-10 ELISA Kit, Endogen). As a control, a group to which the sample or the LPS aqueous solution was not added was provided. All of the measurements were carried out in duplicate.
FIG. 27 illustrates the IL-10 concentrations in culture supernatants obtained by culturing under various culture conditions. The horizontal axis represents the culture conditions and the vertical axis represents the IL-10 concentration (pg/ml).

[2] = system: Human promyelocytic leukemia HL-60 cells; assay: Antiproliferation activity against HL-60 cells (MTT method); type: cell-based; conditions: 48 hour incubation; for pIC50: Homo sapiens, HL-60 cells, read-out: IC50, concentration at which 50% of the proliferation is inhibited
Description: Human promyelocytic leukemia HL-60 cells (ATCC CCL-240) were cultured at 37° C. in RPMI 1640 medium (Gibco) containing 10% of fetal calf serum (JRH Bioscience) which had been treated at 56° C. for 30 minutes, and suspended in the same medium at a concentration of 5000 cells/90 μl. Each 90 μl portion of the suspension was distributed into each well of a 96-well plate (Falcon). To the suspension in each well was added 10 μl of one the following samples, and incubated at 37° C. in the presence of 5% CO2. The samples were 2-, 4-, 8-, 16-, 32-, 64- or 128-dilutions of filter-sterilized 200 mM aqueous solution of the compound (2) obtained in Example 1, 50 mM aqueous solution of the compound (7), 50 mM aqueous solution of the compound (9), 100 mM aqueous solution of the compound (11), 100 mM aqueous solution of the compound (14), 20 mM aqueous solution of the compound (17), 12.5 mM aqueous solution of the compound (19) or 12.5 mM aqueous solution of the compound (21) with sterile water, as well as water. After 48 hour from the initiation of the incubation, the numbers of viable cells calculated based on the absorbance measured according to the MTT method as described in “Apoptosis Jikken Protocol” (Syuzyun-sha, Seiichi Tanuma, ed., pp. 156 (1994)) were compared each other.

[3] = system: prostaglandin E2 production in RAW264.7 cells; assay: Inhibition of prostaglandin E2 production induction by LPS (ELISA); type: cell-based; conditions: compound (7), (14) or (17) at final concentration of 50, 100 or 100 μM, respectively
Description: RAW264.7 cells were suspended in Dulbecco's modified Eagle's medium (Bio Whittaker, Code. 12-604F) containing 10% fetal calf serum at a concentration of 3×10^5 cells/ml. 500 μl of the suspension was added to each well of a 48-well microtiter plate and the plate was incubated at 37° C. for 6 hours in the presence of 5% CO2. The compound (7), (14) or (17) prepared in Example 1 was added to the well at a final concentration of 50, 100 or 100 μM, respectively. The plate was incubated for additional 5 hours. 10 μl of 50 μg/ml lipopolysaccharide (LPS, Sigma, Code. L-2012) aqueous solution was then added to the well. After the plate was incubated for additional 12 hours, the amount of prostaglandin E2 was measured. As control groups, a group to which LPS was not added and a group to which the compound (7), (14) or (17) was not added were provided.
After cultivation, the amount of prostaglandin E2 in the culture supernatant was measured using Prostaglandin E2 ELISA Kit (Neogen, Code. 404110). All of the measurements were carried out in triplicate.
FIG. 21 illustrates the prostaglandin E2 concentration in the medium obtained by incubating under various culture conditions. In FIG. 21, the horizontal axis represents the culture conditions and the vertical axis represents the prostaglandin E2 concentration (ng/ml).

SMILES | inhibition of LPS-induced IL-10 production [1] | antiproliferation activity against HL-60 cells [2] | pIC50 [2] | inhibition of prostaglandin E2 production induction by LPS [3]
OCC1OC(OC2C(CO)OC(OC3C(CO)OC(OC4C(O)COC4C(O)C(O)O)C(O)C3O)C(O)C2O)C(O)C(O)C1O [Compound (14), 4-O-β-maltotoriosyl-3,6-anhydro-D-galactose] | inhibition of LPS-induced IL-10 production was observed | exhibited antiproliferation activities | 3.95 | inhibited the prostaglandin E2 production induction by LPS
O=C[C@H](O)[C@H]1OC[C@@H](O)[C@@H]1OCc1ccccc1 [Compound (17), 4-O-benzyl-3,6-anhydro-D-galactose] | inhibition of LPS-induced IL-10 production was observed | exhibited antiproliferation activities | 3.69 | inhibited the prostaglandin E2 production induction by LPS
O=C[C@H](O)[C@H]1OC[C@@H](O)[C@@H]1OC(=O)c1ccccc1 [Compound (7), 4-O-benzoyl-3,6-anhydro-D-galactose] | inhibition of LPS-induced IL-10 production was observed | exhibited antiproliferation activities | 3.98 | inhibited the prostaglandin E2 production induction by LPS
